Measurements as given in publication PMC8171317, “Total synthesis, isolation, surfactant properties, and biological evaluation of ananatosides and related macrodilactone-containing rhamnolipids” (Chemical Science, 2021).
Like-named read-outs stand apart in the source and are kept apart here. Marks after values point to notes of the source that are not given here.

Experiments:
sheep blood erythrocytes = assay: Hemolytic activity; format: cell-based
Procedure: Owing to their surfactant properties, glycolipids can break the membrane of red blood cells causing hemolytic activity.[18] To understand if the cytotoxicity of macrolactones 1, 4, 5β, and 6β was due to their surface tension activity, we evaluated the hemolytic potential of synthetic glycolipids 1–6 against sheep erythrocytes (Table 5). […] The non-cytotoxic rhamnolipid 3 was also found to exert a weak hemolytic activity (HC50 = 65 ± 6 μM). […]
Hemolytic Activity. The hemolytic activity of the synthetic surfactants was evaluated as previously described with small modifications.10 Defibrinated sheep blood (Oxoid) was centri fuged at 1000 × g for 5 min. The pellet containing erythrocytes was washed once and suspended in 1X PBS to obtain a 1% erythrocytes suspension. All samples were suspended in DMSO/PBS (5:1 v/v) and serially diluted in a 96 -well plate to obtain a range of co ncentrations from 1 mM to 7.8 µM.
The erythrocytes suspension (160 µL) was added to 40 µL of samples to obtain final concentrations […]
ranging between 200 µM and 1.56 µM. Triton X-100 was used as a positive hemolysis control.
The plate was then incubated at 37 °C with agitation at 150 rpm for 1 h and centrifuged at 1500 × g for 5 min. The supernatant was transferred in an empty plate and absorbance was measured at 540 nm using a Cytation3 microplate reader (Biotek). HC50 was calculated in comparison with the positive control. The experiment was performed in triplicate and repeated three times. […]

[1] = Surface tension and CMC, Fisher tensiometer, du Noüy ring method; format: physicochemical; set-up: γ CMC (surface tension at CMC): unit not given here; settings: pH 7.0; synthetic samples
Procedure: Biosurfactants are molecules that can associate with each other leading to the formation of micelles. They can also interact with surfaces between phases of different polarity such as the air/water or oil/water interface.[77] To gain quantitative insights into the surface-active properties of microbial glycolipids, the surface tensions at CMC (γCMC) of ananatoside A (1) and ananatoside B (2) were measured using a Fisher tensiometer by means of the du Noüy ring method. The CMC, referring to the concentration of surfactant at which micelles start to form, was determined from a plot of surface tension again each concentration. […] Consequently, the surface tension measurements were performed quickly to avoid the precipitation of ananatoside A (1) into the aqueous medium.

[2] = Dynamic light scattering (Zetasizer), hydrodynamic diameter of micelles; format: physicochemical; settings: pH 7.0; concentration 80 μM
Text: In parallel to these experiments, we took advantage of dynamic light scattering (DLS) to evaluate the hydrodynamic diameter of biosurfactant micelles formed at concentrations above the CMC (Table 4).[79] DLS considers the intensity of light scattered by spherical particles, which prevents its application for highly polydisperse and non-spherical colloidal systems. […] Once again, due to its hydrophobicity, ananatoside A (1) was too polydisperse for conducting a proper distribution analysis, showing a Z-average value above 800 nm, which meant that the particles were aggregated in water at the tested concentration. Similar results were obtained for ananatoside A (1) when the DLS experiments were conducted in DMSO as the solvent.

[3] = Emulsifying activity against hydrocarbon contaminants; format: physicochemical; settings: cyclohexane and kerosene
Procedure: Therefore, the emulsifying properties of microbial biosurfactants 1–3 were evaluated against light as well as heavy hydrocarbon contaminants such as cyclohexane and kerosene, respectively (see Fig. S7 ^†).

[4] = Cytotoxicity, resazurin assay; format: cell-based, human; settings: human, max tested 200 μM
Procedure: (§1) As the anticancer potential of microbial rhamnolipids has previously been reported,[16] we next sought to evaluate the in vitro cytotoxicity of our synthetic and natural glycolipids 1–6 against cancerous cell lines, i.e., human lung carcinoma (A549) and colorectal adenocarcinoma (DLD-1). The compounds were also tested against human normal skin fibroblasts (WS1) to estimate their selectivity towards cancer cells.
(§2) 4. Experimental Procedures for Biological Evaluation and Surfactant Properties. […]
(§3) Cell Culture. Human lung carcinoma (A549), human colorectal adenocarcinoma (DLD-1), and human normal skin fibroblasts (WS1) cell lines were obtained from the American Type Culture Collection (ATCC). All cell lines were cultured in minimum essential medium containing Earle’s […]
(§4) salts and L-glutamine (Mediatech Cellgro, VA), to which were added 10% foetal bovine serum (Hyclone), vitamins (1×), penicillin (100 IU•mL-1), streptomycin (100 µg•mL−1), essential amino acids (1×), and sodium pyruvate (1×) (Mediatech Cellgro, VA). Cells were kept at 37 °C in a humidified environment containing 5% CO2.
(§5) Cytotoxicity Assay. Exponentially growing A549, DLD-1 or WS1 cells were plated in 96-well microplates (Costar, Corning Inc.) at a density of 5 × 10^3 cells per well in 100 µL of culture medium and were allowed to adhere for 16 h prior treatment. Increasing concentrations of each compound in biotech DMSO (Sigma-Aldrich) were then added (100 µL per well) and the cells were incubated for 48 h. The final concentration of DMSO in the culture medium was maintained at 0.5% (v/v) to avoid solvent toxicity. Cytotoxicity was assessed using resazurin9 on an automated 96-well Fluoroskan Ascent F1TM plate reader (Labsystems) using excitation and emission wavelengths of 530 and 590 nm, respectively. Fluorescence was proportional to the cellular metabolic activity in each well. Survival percentage was defined as the fluorescence in experimental wells as compared to that in control wells after subtraction of blank values. Each experiment was carried out three times in triplicate. IC50 results were expressed as means ± standard deviation. […]

[5] = Cytotoxicity, resazurin assay, summary over cell lines; format: cell-based; settings: human, DLD-1 and WS1 cells (summary over the three lines); A549, DLD-1 and WS1; read-out: Cytotoxicity IC50 against human cell lines
Procedure: as §1, §2, §3, §4, §5

tomato leaf disks = assay: Extracellular ROS production, luminol chemiluminescence; format: cell-based, Solanum lycopersicum; settings: 100 μM, monitored over 720 min
Text: Bacterial rhamnolipids, such as compound 3, trigger the plant immune system, which can ultimately lead to plant protection against diseases caused by fungal and bacterial pathogens.[23] As ananatoside A (1) and ananatoside B (2) share structural similarities with rhamnolipid 3 and because they have been isolated from P. ananatis cultures, an emerging plant pathogen causing important agricultural damage worldwide,[81] we wanted to investigate whether these bacterial glycolipids, along with our unprecedented series of synthetic rhamnolactones, could be perceived by the plant immune system. We relied on measuring the extracellular content of reactive oxygen species (ROS) produced by tomato plants (Solanum lycopersicum) following treatment with the synthetic compounds, as an early and important marker of plant immunity.[20,22,82] Tomato leaves were challenged with synthetic glycolipids 1–6 at concentrations of 100 μM and the production of ROS was monitored over a 720 min time frame (Fig. 5).
Fig. 5 Extracellular reactive oxygen species (ROS) production following treatment of tomato leaf disks with ananatoside A (1), ananatoside B (2), RhaC10C10 (3), and related macrodilactone-containing rhamnolipids (4–6). Production of ROS was measured in tomato leaf disks following treatment at 100 μM with synthetic glycolipids (1–6). MeOH (0.5%) was used as a control. ROS production was measured using the chemiluminescence of luminol and photon counts were expressed as relative luminescence units (RLUs). Data are mean ± SEM (n = 6). Experiments were independently realized three times with similar results. […]
Plant Material and Growth Conditions. Tomato plants (Solanum lycopersicum L var. Ailsa craig, Scotland) were grown on soil in growth chamber with white fluorescent light [200 μmol•(m−2 s−1)], under 16 h/8 h light/dark regime, 60% relative humidity , and a temperature of 24 /20 °C during four weeks prior treatment. Arabidopsis thaliana plants (ecotype Col -0) were grown on soil in growth chambers with white fluorescent light (150 μmol m−2 s−1), under 12 h/12 h light/dark regime, 60% relative humidity, and a temperature of 20/20 °C during six weeks prior treatment.
Reactive Oxygen Species (ROS) Production. ROS assays were performed on four-week old tomato plants or six-week old Arabidopsis plants. Briefly, tomato leaf disks of 6 mm diameter or Arabidopsis petiole sections of 5 mm long were cut and placed in a 96-well plate (Optiplate TM-96 white, PerkinElmer) containing 150 µL of distilled H2O and then incubated at rt for 24 h to reduce the wounding response.11 The elicitation solution containing 0.2 µg•mL−1 luminol (A4685-5 g, Sigma), […] (P6782, Sigma) and the tested glycolipids (1, 2, 3, 4, 5α, 5β, 6α or 6β) at 100 μM was prepared. Methanol (0.5%) was used as negative control. Prior elicitation, the incubating distilled H2O was carefully removed from each well, avoiding any tissue damage or desiccation. Then, the elicitation solution (150 µL) was quickly added to each well containing a leaf disk or a petiole. Luminescence (relative light units, RLU) was measured every 4

[6] = set-up: method as in PMID 17105155; settings: estimated; cited from earlier work
[7] = test system: human colorectal adenocarcinoma (DLD-1); assay: Cytotoxicity, resazurin assay; format: cell-based; settings: 48 h, max tested 200 μM
Procedure: as §1, §2, §3, §4, §5

[8] = test system: human lung carcinoma (A549); assay: Cytotoxicity, resazurin assay; format: cell-based; settings: 48 h, max tested 200 μM
Procedure: as §1, §2, §3, §4, §5

[9] = test system: human normal skin fibroblasts (WS1); assay: Cytotoxicity, resazurin assay; format: cell-based; settings: 48 h, max tested 200 μM
Procedure: as §1, §2, §3, §4, §5

[10] = DLD-1 colorectal adenocarcinoma cells
[11] = sheep blood erythrocytes, 1 h, 37 °C, max tested 200 μM

Q: With Triton X-100 [reference compound] as the compound, how does the “Hemolysis (HC50 in μM) Erythrocytes” value (sheep blood erythrocytes) read?
A: c Half maximal inhibitory concentration measured on sheep blood erythrocytes. Triton X-100 was used as a positive control showing an HC50 value of 52 ± 2 μM.

Q: For CCCCCCC[C@H](CC(=O)O)OC(=O)C[C@@H](CCCCCCC)O[C@@H]1O[C@@H](C)[C@H](O)[C@@H](O)[C@H]1O [Compound 3, RhaC10C10], which “CMC (critical micelle concentration)” value [1] is on record?
A: 58 ± 1 µM

Q: And the “γ CMC (surface tension at CMC)” value [1]?
A: 30 ± 1

Q: What about the “Z-Average (hydrodynamic diameter of micelles)” value [2] of the same compound?
A: 92.1 nm

Q: What about the Emulsifying activity [3] of the same compound?
A: equally able to generate emulsions with cyclohexane and kerosene

Q: And the IC50 at 48 h ([4]; A549 lung carcinoma cells)?
A: > 200 µM

Q: And the IC50 at 48 h [4, 10]?
A: > 200 µM

Q: And the IC50 at 48 h ([4]; WS1 normal skin fibroblasts)?
A: > 200 µM

Q: What about the IC50 at 48 h [5] of the same compound?
A: > 200 µM

Q: And the “Hemolysis (HC50 in μM) Erythrocytes” value (sheep blood erythrocytes; [11])?
A: 65 ± 6 µM

Q: And the “Extracellular ROS production” value (tomato leaf disks)?
A: triggered a long-lasting and strong production of ROS

Q: What about the pKa [6] of the same compound?
A: 5.5

Q: Which results are given for CCCCCCCC1CC(=O)OC2C(OC(CCCCCCC)CC(=O)O1)OC(C)C(O)C2O (stereo not drawn) [Compound 5β]?
A: IC50 [7]: 110 ± 2 µM; IC50 [8]: 103 ± 7 µM; IC50 [9]: 105 ± 5 µM; IC50 at 48 h [5]: 50 to 112 µM; Hemolysis (HC50 in μM) Erythrocytes (sheep blood erythrocytes; [11]): 14 ± 2 µM; Extracellular ROS production (tomato leaf disks): induced a strong and long-lasting production of ROS following the initial burst at 200 min

Q: What does the source list for CCCCCCCC1CC(=O)OC2C(O)C(C)OC(OC(CCCCCCC)CC(=O)O1)C2O (stereo not drawn) [Compound 6α]?
A: IC50 [7]: > 200 µM; IC50 [8]: > 200 µM; IC50 [9]: > 200 µM; Hemolysis (HC50 in μM) Erythrocytes (sheep blood erythrocytes; [11]): >200 ^d μM

Q: Which results are given for CCCCCCCC1CC(=O)OC2C(OC(CCCCCCC)CC(=O)O1)OC(C)C(O)C2O (stereo not drawn) [Compound 5α]?
A: IC50 at 48 h ([4]; A549 lung carcinoma cells): > 200 µM; IC50 at 48 h [4, 10]: > 200 µM; IC50 at 48 h ([4]; WS1 normal skin fibroblasts): > 200 µM; Hemolysis (HC50 in μM) Erythrocytes (sheep blood erythrocytes; [11]): >200 ^d μM; Extracellular ROS production (tomato leaf disks): did not show a similar sensing pattern

Q: For COc1cc([C@@H]2c3cc4c(cc3[C@@H](O[C@@H]3O[C@@H]5CO[C@@H](C)O[C@H]5[C@H](O)[C@H]3O)[C@H]3COC(=O)[C@H]23)OCO4)cc(OC)c1O [Etoposide, reference compound], which IC50 at 48 h ([4]; A549 lung carcinoma cells) is on record?
A: 1.2 µM

Q: What about the IC50 at 48 h [4, 10] of the same compound?
A: 27 µM

Q: What about the IC50 at 48 h ([4]; WS1 normal skin fibroblasts) of the same compound?
A: 34 µM

Q: For CCCCCCCC1CC(=O)OC2C(O)C(C)OC(OC(CCCCCCC)CC(=O)O1)C2O (stereo not drawn) [Compound 6β], which IC50 at 48 h ([4]; A549 lung carcinoma cells) is on record?
A: 112 ± 2 µM

Q: And the IC50 at 48 h [4, 10]?
A: 112 ± 3 µM

Q: What about the IC50 at 48 h ([4]; WS1 normal skin fibroblasts) of the same compound?
A: 110 ± 1 µM

Q: And the IC50 at 48 h [5]?
A: 50 to 112 µM

Q: What about the “Hemolysis (HC50 in μM) Erythrocytes” value (sheep blood erythrocytes; [11]) of the same compound?
A: 12.3 ± 0.5 µM

Q: Which results are given for CCCCCCCC1CC(=O)OC2C(C)OC(OC(CCCCCCC)CC(=O)O1)C(O)C2O (stereo not shown) [Compound 4]?
A: IC50 at 48 h ([4]; A549 lung carcinoma cells): 56 ± 2 µM; IC50 at 48 h [4, 10]: 70 ± 10 µM; IC50 at 48 h ([4]; WS1 normal skin fibroblasts): 57 ± 1 µM; IC50 at 48 h [5]: 50 to 112 µM; Hemolysis (HC50 in μM) Erythrocytes (sheep blood erythrocytes; [11]): 12.0 ± 0.7 µM
